The values below come from ChEMBL document CHEMBL5212743, “Selectivity Literature for EUbOPEN Chemogenomics Library wave 3” (2023).

For assay [1], the target named is Kappa-type opioid receptor (Homo sapiens, UniProt P41145). As to the kind of experiment: Selectivity interaction (SafetyScreen44™ (Eurofins, ion channels, GPCRs, hydrolases, and other enzymes)) EUB0000282b OPRK1. The note with it: at 10 µM.
Assay [2] has as its target T1, Phosphatidylinositol 5-phosphate 4-kinase type-2 beta (Homo sapiens) (UniProt P78356).
T1 sequence (whole entry): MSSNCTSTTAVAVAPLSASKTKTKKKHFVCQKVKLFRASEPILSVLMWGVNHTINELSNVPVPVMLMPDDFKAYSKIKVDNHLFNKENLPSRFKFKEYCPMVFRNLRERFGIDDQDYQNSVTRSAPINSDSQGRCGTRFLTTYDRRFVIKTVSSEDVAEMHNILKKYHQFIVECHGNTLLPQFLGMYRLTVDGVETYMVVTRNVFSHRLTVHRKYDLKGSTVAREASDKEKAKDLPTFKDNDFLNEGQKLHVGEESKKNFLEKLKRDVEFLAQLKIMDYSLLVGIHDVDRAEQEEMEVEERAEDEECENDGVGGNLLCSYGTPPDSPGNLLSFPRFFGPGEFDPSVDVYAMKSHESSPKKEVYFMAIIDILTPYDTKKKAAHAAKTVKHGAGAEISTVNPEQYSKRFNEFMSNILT
As to the kind of experiment: Selectivity interaction (KinomeScan (DiscoverX)) EUB0000738a PIP4K2B. The note with it: at 1 µM.

In assay [3] the target is Dual specificity tyrosine-phosphorylation-regulated kinase 1B (Homo sapiens, UniProt Q9Y463). The experiment in a line: Selectivity interaction (KinomeScan (DiscoverX)) EUB0000738a DYRK1B. The note with it: at 1 µM.
Assay [4] addresses Cyclin-dependent kinase-like 2 (Homo sapiens) (UniProt Q92772). The experiment in a line: Selectivity interaction (KinomeScan (DiscoverX)) EUB0000240b CDKL2. The note with it: at 1 µM.
Assay [5] has as its target Aurora kinase A (Homo sapiens) (UniProt O14965). The experiment in a line: Selectivity interaction (KinomeScan (DiscoverX)) EUB0000294b STK6. The note with it: at 1 µM.
The target in assay [6] is Sodium-dependent dopamine transporter (Homo sapiens, UniProt Q01959). As to the kind of experiment: Selectivity interaction (GPCR panel (PDSP screen)) EUB0000294b SLC6A3. The note with it: at 10 µM.
Assay [7] deals with T2, Serine/threonine-protein kinase LATS1 (Homo sapiens) (UniProt O95835).
T2 sequence (whole entry): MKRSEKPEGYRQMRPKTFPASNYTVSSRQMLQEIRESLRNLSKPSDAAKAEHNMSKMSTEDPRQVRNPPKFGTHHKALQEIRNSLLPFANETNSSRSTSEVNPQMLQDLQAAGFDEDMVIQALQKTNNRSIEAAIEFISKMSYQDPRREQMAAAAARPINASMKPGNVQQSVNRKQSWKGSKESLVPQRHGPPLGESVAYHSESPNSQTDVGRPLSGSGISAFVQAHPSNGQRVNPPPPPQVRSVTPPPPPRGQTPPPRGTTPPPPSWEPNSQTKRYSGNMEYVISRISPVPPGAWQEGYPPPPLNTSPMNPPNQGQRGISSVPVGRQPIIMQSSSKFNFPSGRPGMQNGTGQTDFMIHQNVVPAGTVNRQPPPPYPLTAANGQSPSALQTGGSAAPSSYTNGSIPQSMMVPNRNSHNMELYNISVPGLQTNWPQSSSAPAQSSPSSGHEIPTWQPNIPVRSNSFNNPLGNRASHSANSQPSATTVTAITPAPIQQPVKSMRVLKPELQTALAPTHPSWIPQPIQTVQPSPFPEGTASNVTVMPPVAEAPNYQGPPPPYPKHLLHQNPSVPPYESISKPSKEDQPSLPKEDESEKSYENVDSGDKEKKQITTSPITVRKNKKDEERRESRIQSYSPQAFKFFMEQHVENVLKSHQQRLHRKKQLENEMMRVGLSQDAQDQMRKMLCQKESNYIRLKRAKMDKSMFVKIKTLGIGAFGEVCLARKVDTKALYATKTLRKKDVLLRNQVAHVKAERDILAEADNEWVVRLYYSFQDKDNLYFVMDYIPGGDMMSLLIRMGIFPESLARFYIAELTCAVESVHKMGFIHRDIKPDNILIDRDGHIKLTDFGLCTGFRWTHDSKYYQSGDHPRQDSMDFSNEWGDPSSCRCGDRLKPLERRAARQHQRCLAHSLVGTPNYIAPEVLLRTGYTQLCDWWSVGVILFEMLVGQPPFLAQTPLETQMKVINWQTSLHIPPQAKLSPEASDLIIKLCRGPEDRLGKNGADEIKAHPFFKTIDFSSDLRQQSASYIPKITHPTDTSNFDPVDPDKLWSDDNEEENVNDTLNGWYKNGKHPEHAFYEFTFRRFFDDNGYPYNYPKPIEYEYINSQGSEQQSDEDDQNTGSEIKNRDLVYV
As to the kind of experiment: Selectivity interaction (KinomeScan (DiscoverX)) EUB0000294b LATS1. The note with it: at 1 µM.

The target in assay [8] is NT-3 growth factor receptor (Homo sapiens, UniProt Q16288). As to the kind of experiment: Selectivity interaction (KinomeScan (DiscoverX)) EUB0000294b NTRK3. The note with it: at 1 µM.
The target of assay [9] is T3, Dual specificity mitogen-activated protein kinase kinase 5 (Homo sapiens) (UniProt Q13163).
T3 sequence (whole entry): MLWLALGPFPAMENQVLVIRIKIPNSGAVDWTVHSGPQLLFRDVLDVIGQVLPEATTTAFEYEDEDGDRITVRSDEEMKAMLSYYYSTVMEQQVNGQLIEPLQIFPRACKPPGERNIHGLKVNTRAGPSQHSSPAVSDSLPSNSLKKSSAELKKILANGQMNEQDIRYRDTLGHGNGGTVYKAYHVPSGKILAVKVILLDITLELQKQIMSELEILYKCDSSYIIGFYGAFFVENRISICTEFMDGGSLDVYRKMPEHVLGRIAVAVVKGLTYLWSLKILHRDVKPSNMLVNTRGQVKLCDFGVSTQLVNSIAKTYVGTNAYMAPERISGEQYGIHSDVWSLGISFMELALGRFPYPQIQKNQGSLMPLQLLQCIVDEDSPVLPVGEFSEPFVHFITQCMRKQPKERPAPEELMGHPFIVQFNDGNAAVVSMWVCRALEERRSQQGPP
The experiment in a line: Selectivity interaction (KinomeScan (DiscoverX)) EUB0000294b MAP2K5. The note with it: at 1 µM.

Assay [10] addresses Nischarin (Homo sapiens) (UniProt Q9Y2I1). The experiment in a line: Selectivity interaction (MDS Pharma Service panel (GPCR, ion channels, receptors, and other enzymes, radioligand binding assays)) EUB0000294b NISCH. The note with it: at 10 µM.
For assay [11], the target named is Dual specificity protein kinase CLK4 (Homo sapiens) (UniProt Q9HAZ1). The experiment in a line: Selectivity interaction (KinomeScan (DiscoverX)) EUB0000347a CLK4. The note with it: at 1 µM.
For assay [12], the target named is T4, Mitogen-activated protein kinase kinase kinase 13 (Homo sapiens) (UniProt O43283).
T4 sequence (whole entry): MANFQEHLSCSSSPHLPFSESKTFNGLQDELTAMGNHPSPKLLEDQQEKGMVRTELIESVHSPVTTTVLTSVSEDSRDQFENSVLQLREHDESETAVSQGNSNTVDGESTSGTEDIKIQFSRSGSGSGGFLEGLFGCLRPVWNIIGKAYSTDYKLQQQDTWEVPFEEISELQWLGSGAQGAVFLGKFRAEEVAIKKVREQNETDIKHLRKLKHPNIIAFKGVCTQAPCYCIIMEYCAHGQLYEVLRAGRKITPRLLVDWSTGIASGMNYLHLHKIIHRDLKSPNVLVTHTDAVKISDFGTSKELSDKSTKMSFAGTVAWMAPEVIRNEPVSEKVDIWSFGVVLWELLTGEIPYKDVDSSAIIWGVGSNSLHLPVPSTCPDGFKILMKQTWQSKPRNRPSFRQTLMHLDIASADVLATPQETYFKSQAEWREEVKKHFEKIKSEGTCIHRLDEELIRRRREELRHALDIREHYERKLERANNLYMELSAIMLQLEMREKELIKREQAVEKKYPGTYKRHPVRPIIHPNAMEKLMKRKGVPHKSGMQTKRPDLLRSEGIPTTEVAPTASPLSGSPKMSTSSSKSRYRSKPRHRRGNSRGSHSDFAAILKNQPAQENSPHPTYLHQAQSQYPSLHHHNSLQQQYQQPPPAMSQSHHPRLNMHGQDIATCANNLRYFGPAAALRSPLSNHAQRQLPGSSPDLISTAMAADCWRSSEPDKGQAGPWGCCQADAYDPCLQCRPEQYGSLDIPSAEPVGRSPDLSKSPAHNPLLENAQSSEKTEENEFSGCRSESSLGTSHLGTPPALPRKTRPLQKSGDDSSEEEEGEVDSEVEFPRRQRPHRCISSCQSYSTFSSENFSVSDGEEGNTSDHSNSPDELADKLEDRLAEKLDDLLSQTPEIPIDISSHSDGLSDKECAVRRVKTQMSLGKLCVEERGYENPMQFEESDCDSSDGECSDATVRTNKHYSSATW
As to the kind of experiment: Selectivity interaction (KinomeScan (DiscoverX)) EUB0000347a MAP3K13. The note with it: at 1 µM.

Assay [13] deals with 5'-AMP-activated protein kinase catalytic subunit alpha-1 (Homo sapiens, UniProt Q13131). The experiment in a line: Selectivity interaction (KinomeScan (DiscoverX)) EUB0000347a PRKAA1. The note with it: at 1 µM.
Assay [14] has as its target Cyclin-dependent kinase 5 (Homo sapiens) (UniProt Q00535). The experiment in a line: Selectivity interaction (KinomeScan (DiscoverX)) EUB0000347a CDK5. The note with it: at 1 µM.
In assay [15] the target is Epidermal growth factor receptor (Homo sapiens, UniProt P00533). As to the kind of experiment: Selectivity interaction (KinomeScan (DiscoverX)) EUB0000250b EGFR. The note with it: at 1 µM.
In assay [16] the target is Ephrin type-A receptor 5 (Homo sapiens) (UniProt P54756). The experiment in a line: Selectivity interaction (KinomeScan (Eurofins)) EUB0000250b EPHA5. The note with it: at 1 µM.
Assay [17] addresses Ephrin type-B receptor 3 (Homo sapiens) (UniProt P54753). As to the kind of experiment: Selectivity interaction (KinomeScan (Eurofins)) EUB0000250b EPHB3. The note with it: at 1 µM.
Assay [18] has as its target Leukocyte tyrosine kinase receptor (Homo sapiens, UniProt P29376). As to the kind of experiment: Selectivity interaction (KinomeScan (DiscoverX)) EUB0000250b LTK. The note with it: at 1 µM.
Assay [19] concerns the target Tyrosine-protein kinase Fer (Homo sapiens, UniProt P16591). As to the kind of experiment: Selectivity interaction (KinomeScan (Eurofins)) EUB0000250b FER. The note with it: at 1 µM.
The target of assay [20] is T5, Ephrin type-B receptor 6 (Homo sapiens) (UniProt O15197).
T5 sequence (whole entry): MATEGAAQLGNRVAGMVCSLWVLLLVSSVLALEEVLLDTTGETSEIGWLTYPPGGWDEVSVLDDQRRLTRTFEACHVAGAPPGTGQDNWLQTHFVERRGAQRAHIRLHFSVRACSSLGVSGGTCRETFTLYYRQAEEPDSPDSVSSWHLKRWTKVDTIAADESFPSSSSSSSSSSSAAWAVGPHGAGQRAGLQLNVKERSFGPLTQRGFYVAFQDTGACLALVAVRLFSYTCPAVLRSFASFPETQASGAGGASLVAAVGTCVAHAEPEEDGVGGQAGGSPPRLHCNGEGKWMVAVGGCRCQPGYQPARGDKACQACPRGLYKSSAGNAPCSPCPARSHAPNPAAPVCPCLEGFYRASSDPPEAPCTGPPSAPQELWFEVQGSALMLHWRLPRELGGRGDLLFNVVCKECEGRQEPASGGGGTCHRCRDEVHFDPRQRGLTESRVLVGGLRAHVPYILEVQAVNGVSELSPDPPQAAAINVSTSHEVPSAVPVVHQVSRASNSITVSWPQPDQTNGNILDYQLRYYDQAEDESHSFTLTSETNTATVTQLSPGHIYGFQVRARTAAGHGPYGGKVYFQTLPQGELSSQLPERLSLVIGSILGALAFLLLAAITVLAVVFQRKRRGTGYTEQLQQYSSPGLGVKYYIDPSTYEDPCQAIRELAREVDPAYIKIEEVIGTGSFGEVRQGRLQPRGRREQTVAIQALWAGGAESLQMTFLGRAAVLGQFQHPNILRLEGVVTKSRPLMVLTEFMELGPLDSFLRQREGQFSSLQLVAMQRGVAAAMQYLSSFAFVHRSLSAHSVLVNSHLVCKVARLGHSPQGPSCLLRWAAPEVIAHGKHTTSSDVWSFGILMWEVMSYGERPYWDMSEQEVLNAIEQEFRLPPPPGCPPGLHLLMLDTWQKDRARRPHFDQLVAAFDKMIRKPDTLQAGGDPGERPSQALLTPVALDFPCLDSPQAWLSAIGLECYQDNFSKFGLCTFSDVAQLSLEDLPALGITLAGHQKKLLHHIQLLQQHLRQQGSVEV
The experiment in a line: Selectivity interaction (KinomeScan (Eurofins)) EUB0000250b EPHB6. The note with it: at 1 µM.

Sequence of Dual specificity tyrosine-phosphorylation-regulated kinase 1B (Q9Y463 whole entry, looked up): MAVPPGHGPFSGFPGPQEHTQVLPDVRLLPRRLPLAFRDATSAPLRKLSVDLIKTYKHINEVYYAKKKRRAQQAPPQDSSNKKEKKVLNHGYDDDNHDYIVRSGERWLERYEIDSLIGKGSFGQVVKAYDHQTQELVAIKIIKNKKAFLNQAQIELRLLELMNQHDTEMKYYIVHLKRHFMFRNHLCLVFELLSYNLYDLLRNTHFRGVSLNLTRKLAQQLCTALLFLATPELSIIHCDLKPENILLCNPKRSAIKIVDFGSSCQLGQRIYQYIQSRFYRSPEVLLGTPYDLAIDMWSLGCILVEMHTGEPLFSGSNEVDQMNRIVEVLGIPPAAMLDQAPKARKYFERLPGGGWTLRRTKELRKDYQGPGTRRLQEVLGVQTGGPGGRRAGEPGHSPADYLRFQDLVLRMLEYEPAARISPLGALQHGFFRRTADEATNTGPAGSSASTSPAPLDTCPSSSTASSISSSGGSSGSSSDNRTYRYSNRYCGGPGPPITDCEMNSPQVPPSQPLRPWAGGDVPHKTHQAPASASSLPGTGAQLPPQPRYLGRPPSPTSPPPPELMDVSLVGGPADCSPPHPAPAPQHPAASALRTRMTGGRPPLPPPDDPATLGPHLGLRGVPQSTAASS
Sequence of Kappa-type opioid receptor (P41145 whole entry): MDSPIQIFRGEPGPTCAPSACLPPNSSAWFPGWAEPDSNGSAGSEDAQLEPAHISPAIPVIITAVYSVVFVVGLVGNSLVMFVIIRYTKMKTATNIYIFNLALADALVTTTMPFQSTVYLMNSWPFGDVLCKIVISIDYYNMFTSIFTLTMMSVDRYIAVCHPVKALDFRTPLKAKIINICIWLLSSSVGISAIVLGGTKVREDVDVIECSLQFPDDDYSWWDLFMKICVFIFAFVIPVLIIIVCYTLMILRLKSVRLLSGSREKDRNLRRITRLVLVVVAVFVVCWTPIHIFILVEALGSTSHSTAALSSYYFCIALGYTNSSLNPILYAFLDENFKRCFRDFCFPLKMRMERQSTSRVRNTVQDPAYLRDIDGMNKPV
Sequence of Cyclin-dependent kinase-like 2 (Homo sapiens) (Q92772 whole entry): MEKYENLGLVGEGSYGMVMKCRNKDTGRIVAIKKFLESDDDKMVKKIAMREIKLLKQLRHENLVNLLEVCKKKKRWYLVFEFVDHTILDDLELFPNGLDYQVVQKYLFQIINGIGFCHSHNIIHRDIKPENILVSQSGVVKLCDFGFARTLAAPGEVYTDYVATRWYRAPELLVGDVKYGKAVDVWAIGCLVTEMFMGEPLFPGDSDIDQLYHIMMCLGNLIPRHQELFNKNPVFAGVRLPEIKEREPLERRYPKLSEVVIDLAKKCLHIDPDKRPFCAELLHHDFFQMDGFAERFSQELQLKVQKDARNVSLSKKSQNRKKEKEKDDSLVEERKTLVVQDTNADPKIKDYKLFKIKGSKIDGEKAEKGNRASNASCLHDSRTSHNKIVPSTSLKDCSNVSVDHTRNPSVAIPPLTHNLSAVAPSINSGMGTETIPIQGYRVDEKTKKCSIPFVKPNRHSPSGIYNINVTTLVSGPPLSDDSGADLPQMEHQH
Sequence of Ephrin type-A receptor 5 (Homo sapiens) (P54756 whole entry): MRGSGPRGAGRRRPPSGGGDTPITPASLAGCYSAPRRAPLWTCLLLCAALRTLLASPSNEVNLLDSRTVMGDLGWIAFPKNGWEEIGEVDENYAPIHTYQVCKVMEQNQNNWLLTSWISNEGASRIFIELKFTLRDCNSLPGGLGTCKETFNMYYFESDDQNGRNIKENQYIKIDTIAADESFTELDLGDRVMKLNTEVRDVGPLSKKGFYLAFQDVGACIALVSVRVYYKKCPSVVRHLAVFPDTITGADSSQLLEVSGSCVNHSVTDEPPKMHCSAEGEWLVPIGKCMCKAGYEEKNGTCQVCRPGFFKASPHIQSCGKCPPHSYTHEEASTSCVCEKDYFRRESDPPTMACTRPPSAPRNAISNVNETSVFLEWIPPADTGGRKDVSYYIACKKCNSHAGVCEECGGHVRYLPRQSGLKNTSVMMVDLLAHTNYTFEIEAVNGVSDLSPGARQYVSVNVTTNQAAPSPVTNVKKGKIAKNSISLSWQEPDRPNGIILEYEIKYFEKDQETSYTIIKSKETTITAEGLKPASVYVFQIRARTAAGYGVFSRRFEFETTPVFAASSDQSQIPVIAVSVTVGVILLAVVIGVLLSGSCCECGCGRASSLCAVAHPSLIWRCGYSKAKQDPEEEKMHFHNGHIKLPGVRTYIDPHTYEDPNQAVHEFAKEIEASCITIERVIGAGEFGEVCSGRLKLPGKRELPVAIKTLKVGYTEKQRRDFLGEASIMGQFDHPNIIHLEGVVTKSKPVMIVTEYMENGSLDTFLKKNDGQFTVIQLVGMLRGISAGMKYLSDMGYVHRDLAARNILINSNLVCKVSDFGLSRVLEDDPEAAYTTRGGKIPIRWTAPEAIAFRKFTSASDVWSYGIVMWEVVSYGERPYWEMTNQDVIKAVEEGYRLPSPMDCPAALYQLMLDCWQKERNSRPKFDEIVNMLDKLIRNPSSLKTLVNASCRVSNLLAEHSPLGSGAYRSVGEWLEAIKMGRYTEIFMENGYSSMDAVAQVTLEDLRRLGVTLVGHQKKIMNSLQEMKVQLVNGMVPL
Sequence of Cyclin-dependent kinase 5 (Homo sapiens) (Q00535 whole entry, looked up): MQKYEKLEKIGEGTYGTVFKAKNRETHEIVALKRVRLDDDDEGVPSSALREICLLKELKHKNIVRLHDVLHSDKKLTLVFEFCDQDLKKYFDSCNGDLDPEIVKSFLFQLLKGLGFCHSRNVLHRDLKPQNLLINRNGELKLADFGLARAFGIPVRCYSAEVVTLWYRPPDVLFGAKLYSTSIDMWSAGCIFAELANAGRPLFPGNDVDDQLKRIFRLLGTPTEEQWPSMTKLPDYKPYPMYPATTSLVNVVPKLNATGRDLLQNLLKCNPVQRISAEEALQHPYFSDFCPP
Sequence of Ephrin type-B receptor 3 (Homo sapiens) (P54753 whole entry): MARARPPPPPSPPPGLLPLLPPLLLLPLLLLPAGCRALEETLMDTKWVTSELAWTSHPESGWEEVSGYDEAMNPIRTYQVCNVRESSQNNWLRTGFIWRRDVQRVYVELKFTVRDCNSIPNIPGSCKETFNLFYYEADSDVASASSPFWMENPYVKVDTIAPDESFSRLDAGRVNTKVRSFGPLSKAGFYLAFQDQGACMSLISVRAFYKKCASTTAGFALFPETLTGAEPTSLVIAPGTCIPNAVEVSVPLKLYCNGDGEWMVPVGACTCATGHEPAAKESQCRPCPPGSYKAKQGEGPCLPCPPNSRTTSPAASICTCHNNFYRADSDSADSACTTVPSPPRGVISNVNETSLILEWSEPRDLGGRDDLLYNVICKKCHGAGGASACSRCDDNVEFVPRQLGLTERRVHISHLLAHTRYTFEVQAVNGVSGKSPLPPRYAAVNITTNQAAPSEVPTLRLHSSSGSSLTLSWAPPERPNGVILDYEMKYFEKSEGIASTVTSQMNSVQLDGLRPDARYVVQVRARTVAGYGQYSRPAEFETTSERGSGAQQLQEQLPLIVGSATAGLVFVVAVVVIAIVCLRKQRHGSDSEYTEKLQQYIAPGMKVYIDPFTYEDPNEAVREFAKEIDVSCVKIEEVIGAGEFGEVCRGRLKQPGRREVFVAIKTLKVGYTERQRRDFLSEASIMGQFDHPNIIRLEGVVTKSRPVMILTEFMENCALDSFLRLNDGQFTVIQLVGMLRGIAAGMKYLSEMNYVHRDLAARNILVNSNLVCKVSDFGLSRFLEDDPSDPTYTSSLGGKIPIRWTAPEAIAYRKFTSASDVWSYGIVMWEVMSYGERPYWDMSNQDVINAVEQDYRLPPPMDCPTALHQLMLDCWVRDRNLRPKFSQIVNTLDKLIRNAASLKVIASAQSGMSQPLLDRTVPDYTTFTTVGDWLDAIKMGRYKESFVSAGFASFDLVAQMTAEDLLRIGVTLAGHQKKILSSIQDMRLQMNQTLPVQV
Sequence of Dual specificity protein kinase CLK4 (Homo sapiens) (Q9HAZ1 whole entry, looked up): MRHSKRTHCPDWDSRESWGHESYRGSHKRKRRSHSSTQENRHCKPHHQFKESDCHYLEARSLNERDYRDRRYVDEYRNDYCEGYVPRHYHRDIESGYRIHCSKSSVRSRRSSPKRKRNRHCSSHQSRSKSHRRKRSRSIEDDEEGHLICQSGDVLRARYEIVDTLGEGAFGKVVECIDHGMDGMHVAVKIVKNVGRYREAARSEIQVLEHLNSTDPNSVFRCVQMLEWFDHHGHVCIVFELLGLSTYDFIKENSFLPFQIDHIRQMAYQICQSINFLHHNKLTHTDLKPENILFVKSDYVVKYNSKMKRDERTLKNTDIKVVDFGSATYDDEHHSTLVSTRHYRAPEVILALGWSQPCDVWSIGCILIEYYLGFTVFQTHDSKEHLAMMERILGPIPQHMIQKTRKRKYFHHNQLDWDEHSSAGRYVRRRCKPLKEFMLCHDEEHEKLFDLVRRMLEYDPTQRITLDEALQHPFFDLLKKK
Sequence of 5'-AMP-activated protein kinase catalytic subunit alpha-1 (Q13131 whole entry, looked up): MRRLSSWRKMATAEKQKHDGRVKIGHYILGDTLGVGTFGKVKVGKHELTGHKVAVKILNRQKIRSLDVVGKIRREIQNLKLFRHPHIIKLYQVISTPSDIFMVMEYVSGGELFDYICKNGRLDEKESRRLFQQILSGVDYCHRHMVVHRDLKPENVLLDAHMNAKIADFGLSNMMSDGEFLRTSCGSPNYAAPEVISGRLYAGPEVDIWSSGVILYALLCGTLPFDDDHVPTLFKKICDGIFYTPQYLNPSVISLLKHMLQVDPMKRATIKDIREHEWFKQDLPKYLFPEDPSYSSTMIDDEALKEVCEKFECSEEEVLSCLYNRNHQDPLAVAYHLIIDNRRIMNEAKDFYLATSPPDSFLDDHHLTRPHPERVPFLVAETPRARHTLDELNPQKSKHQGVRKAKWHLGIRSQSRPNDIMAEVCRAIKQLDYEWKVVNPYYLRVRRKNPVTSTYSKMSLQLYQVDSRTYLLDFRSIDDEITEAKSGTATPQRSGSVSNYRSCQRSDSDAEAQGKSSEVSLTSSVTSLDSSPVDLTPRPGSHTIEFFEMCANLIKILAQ

In assay [1], `O=C(NCc1ccc(F)cc1)C1CCN(S(=O)(=O)c2cc(Cl)cc(Cl)c2)CC1` returned a % of control of 19%.
In the case of `CCC(=O)N[C@@H]1CC[C@H](C(=O)N(C)c2ccc(-c3nc4ccccc4o3)cc2)C1`, the % of control in [2] worked out at 45%; in assay [3] it was 36%.
With `O=C(Nc1cnc(Oc2ccc(F)cc2)nc1)N1CCc2ncccc2[C@@H]1c1ccc(F)cc1`, the % of control in [4] worked out at 33%.
`CCC(=O)N[C@H]1CC[C@@H](C(=O)N(C)c2ccc(-c3nc4ccccc4o3)cc2)C1`: the % of control in [5] turned out to be 43%; in assay [7], 48%; in assay [8], 32%; in assay [9], 16%. Further, the % of inhibition in assay [6] is 77%; in assay [10], 19%.
For the molecule `O=C(NCc1ncc(C(F)(F)F)cc1Cl)c1ccc2c(c1)C1(CCS(=O)(=O)CC1)[C@H](C1CC1)N2S(=O)(=O)c1ccc(F)cc1`, the % of control turned out to be 0% in assay [11], 0% in assay [12], 39% in [13] and 0% in [14].
Take `CN1CCN(c2cnc3c(C4CCN(C(=O)c5ccc(OC(F)(F)F)cc5N)CC4)ncnc3c2)CC1`: the % of control is 38% in [15]; 57% in [16]; 42% in assay [17]; 49% in [18]; 38% in assay [19]; 18% in [20].
